The source of these data is patent US9150566B2, “2-(1,2,3-triazol-2-yl)benzamide and 3-(1,2,3-triazol-2-YL)picolinamide derivatives as orexin receptor antagonists” (ACTELION PHARMACEUTICALS LTD., priority 2011, dated 2015).

Read-outs that look alike come from different tables or passages of the source.

One data set concerns the target human orexin-1 receptor (Homo sapiens (Human), UniProt O43613). Kind of data set: In vitro intracellular calcium measurements (FLIPR), antagonistic activity on orexin-1 receptor. The conditions noted are these: read-out: IC50 OX1. The data set is classed as cell-based. The procedure, abridged: (§1)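 CHO cells expressing human orexin-1 or orexin-2 receptor were seeded overnight, preincubated with antagonist for 120 min, then stimulated with agonist in a FLIPR Tetra.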

The target in a further data set is human orexin-2 receptor (Homo sapiens (Human), UniProt O43614). Kind of data set: In vitro intracellular calcium measurements (FLIPR), antagonistic activity on orexin-2 receptor. The conditions noted are these: read-out: IC50 OX2. The class given is cell-based. Summed up:
as §1

A further data set addresses CYP3A4 (Homo sapiens (Human), UniProt P08684). Nature of the data set: CYP3A4 inhibition assay (human liver microsomes, testosterone 6β-hydroxylation). The conditions noted are these: read-out: CYP3A4 IC50, 40 μM testosterone.
The mark [1] stands for this setting: CHO cells expressing human orexin-1 receptor, FLIPR, 3 nM orexin-A agonist, 120 min antagonist incubation, geometric mean if determined several times.
The mark [2] stands for this setting: CHO cells expressing human orexin-2 receptor, FLIPR, 3 nM orexin-A agonist, 120 min antagonist incubation, geometric mean if determined several times.

Chain of human orexin-1 receptor (O43613 whole entry): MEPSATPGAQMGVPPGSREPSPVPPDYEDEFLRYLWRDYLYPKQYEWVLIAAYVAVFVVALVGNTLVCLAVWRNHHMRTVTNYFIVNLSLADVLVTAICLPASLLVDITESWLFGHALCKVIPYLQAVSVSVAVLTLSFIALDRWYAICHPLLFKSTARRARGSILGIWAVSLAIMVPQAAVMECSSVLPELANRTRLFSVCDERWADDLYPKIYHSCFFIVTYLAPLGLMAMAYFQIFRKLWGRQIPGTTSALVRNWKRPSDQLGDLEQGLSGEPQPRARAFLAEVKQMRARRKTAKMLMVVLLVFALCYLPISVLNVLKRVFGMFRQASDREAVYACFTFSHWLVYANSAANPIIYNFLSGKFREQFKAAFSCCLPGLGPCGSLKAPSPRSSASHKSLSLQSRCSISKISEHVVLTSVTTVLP
Chain of CYP3A4 (P08684 whole entry): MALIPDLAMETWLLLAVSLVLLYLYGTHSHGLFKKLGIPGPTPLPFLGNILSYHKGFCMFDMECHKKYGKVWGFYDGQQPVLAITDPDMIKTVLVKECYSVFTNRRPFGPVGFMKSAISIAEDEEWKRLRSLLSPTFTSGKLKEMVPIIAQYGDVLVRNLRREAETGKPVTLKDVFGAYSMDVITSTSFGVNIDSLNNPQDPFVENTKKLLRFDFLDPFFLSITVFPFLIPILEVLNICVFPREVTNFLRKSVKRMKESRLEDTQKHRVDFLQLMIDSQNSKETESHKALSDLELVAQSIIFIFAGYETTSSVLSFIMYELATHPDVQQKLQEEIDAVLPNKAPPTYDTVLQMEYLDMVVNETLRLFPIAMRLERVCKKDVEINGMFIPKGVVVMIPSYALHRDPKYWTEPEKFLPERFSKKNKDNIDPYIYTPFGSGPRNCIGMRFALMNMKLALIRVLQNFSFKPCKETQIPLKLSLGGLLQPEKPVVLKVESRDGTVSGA
Chain of human orexin-2 receptor (O43614 whole entry): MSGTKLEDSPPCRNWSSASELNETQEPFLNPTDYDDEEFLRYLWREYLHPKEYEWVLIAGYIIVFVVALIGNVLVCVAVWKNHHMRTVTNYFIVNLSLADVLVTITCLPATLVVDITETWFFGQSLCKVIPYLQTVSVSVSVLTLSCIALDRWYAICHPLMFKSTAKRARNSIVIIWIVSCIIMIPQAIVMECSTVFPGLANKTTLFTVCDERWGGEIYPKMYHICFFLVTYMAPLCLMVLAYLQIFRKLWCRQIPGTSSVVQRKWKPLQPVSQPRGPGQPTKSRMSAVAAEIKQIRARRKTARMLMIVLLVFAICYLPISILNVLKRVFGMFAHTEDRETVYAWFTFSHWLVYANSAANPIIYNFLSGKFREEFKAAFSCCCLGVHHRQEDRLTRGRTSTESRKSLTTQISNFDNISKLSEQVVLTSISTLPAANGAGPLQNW

Take `Cc1ccc(C(=O)N2C[C@@H](C)OC[C@H]2Cc2cccc(-n3nccn3)c2)c(-n2nccn2)c1` [Example 101, [(2R,5R)-2-Methyl-5-(3-[1,2,3]triazol-2-yl-benzyl)-morpholin-4-yl]-(4-methyl-2-[1,2,3]triazol-2-yl-phenyl)-methanone]: the values for the IC50 on human orexin-1 receptor, at human orexin-2 receptor and at CYP3A4 were 2 nM, 155 nM and 9700 nM, respectively.

On to `Cc1ccc(C(=O)N2CCOC[C@H]2Cc2cc(-c3ncon3)ccc2F)c(-n2nccn2)c1C` [Example 181, (3,4-Dimethyl-2-[1,2,3]triazol-2-yl-phenyl)-[(R)-3-(2-fluoro-5-[1,2,4]oxadiazol-3-yl-benzyl)-morpholin-4-yl]-methanone], for which the IC50 amounted to 11 nM on human orexin-1 receptor (setting [1]), 1570 nM at human orexin-2 receptor (setting [2]) and 36000 nM at CYP3A4.

Turning to `O=C(c1ccc(F)cc1-n1nccn1)N1CCOC[C@H]1Cc1cccc(-n2nccn2)c1` [Example 36, (4-Fluoro-2-[1,2,3]triazol-2-yl-phenyl)-[(R)-3-(3-[1,2,3]triazol-2-yl-benzyl)-morpholin-4-yl]-methanone], the IC50 on human orexin-1 receptor turned out to be 41 nM; at human orexin-2 receptor, 889 nM; on CYP3A4 it was 36000 nM.

Turning to `COc1ccc(C[C@@H]2COCCN2C(=O)c2ccccc2-n2nccn2)cc1-c1cnccn1` [Example 6], the results for the IC50 on human orexin-1 receptor (setting [1]), on human orexin-2 receptor (setting [2]) and on CYP3A4 were 12 nM, 1940 nM and 26000 nM, respectively.

In the case of `COc1ccc(C(=O)N2CCOC[C@H]2Cc2cccc(-n3nccn3)c2)c(-n2nccn2)c1` [Example 93, (4-Methoxy-2-[1,2,3]triazol-2-yl-phenyl)-[(R)-3-(3-[1,2,3]triazol-2-yl-benzyl)-morpholin-4-yl]-methanone], the IC50 at human orexin-1 receptor is 5 nM; on human orexin-2 receptor, 2090 nM; at CYP3A4, over 50000 nM.

With `Cc1cc(C(=O)N2C[C@@H](C)OC[C@H]2Cc2cccc(-n3nccn3)c2)c(-n2nccn2)cc1C` [Example 98, (4,5-Dimethyl-2-[1,2,3]triazol-2-yl-phenyl)-[(2R,5R)-2-methyl-5-(3-[1,2,3]triazol-2-yl-benzyl)-morpholin-4-yl]-methanone], the IC50 came to 1 nM on human orexin-1 receptor (setting [1]), 24 nM on human orexin-2 receptor (setting [2]) and 9700 nM on CYP3A4.

As for `COc1ccc(-n2nccn2)c(C(=O)N2CCOC[C@H]2Cc2cc(-n3nccn3)ccc2F)c1` [Example 131, [(R)-3-(2-Fluoro-5-[1,2,3]triazol-2-yl-benzyl)-morpholin-4-yl]-(5-methoxy-2-[1,2,3]triazol-2-yl-phenyl)-methanone], the IC50 on human orexin-1 receptor (setting [1]) worked out at 4 nM; on human orexin-2 receptor (setting [2]) it was 1130 nM; on CYP3A4 it was 35000 nM.

`Cc1ccc(-n2nccn2)c(C(=O)N2CCOC[C@H]2Cc2cccc(-n3nccn3)c2)n1` [Example 52, (6-Methyl-3-[1,2,3]triazol-2-yl-pyridin-2-yl)-[(R)-3-(3-[1,2,3]triazol-2-yl-benzyl)-morpholin-4-yl]-methanone]: the IC50 was 43 nM at human orexin-1 receptor (setting [1]), 1630 nM on human orexin-2 receptor (setting [2]) and over 50000 nM at CYP3A4.

In the case of `O=C(c1ccccc1-n1nccn1)N1CCOC[C@H]1Cc1cccc(-c2ncccn2)c1` [Example 18, [(R)-3-(3-Pyrimidin-2-yl-benzyl)-morpholin-4-yl]-(2-[1,2,3]triazol-2-yl-phenyl)-methanone], the IC50 at human orexin-1 receptor (setting [1]) turned out to be 22 nM; on human orexin-2 receptor (setting [2]), 1890 nM; at CYP3A4, 39000 nM.

With `O=C(c1cccc(Cl)c1-n1nccn1)N1CCOC[C@H]1Cc1cc(-n2nccn2)ccc1F` [Example 135, (3-Chloro-2-[1,2,3]triazol-2-yl-phenyl)-[(R)-3-(2-fluoro-5-[1,2,3]triazol-2-yl-benzyl)-morpholin-4-yl]-methanone], the IC50 at human orexin-1 receptor (setting [1]) is 16 nM; on human orexin-2 receptor (setting [2]) it was 1880 nM; at CYP3A4, 30000 nM.

Take `N#Cc1ccc(-n2nccn2)c(C(=O)N2CCOC[C@H]2Cc2cccc(-n3nccn3)c2)c1` [Example 31, 4-[1,2,3]Triazol-2-yl-3-[(R)-3-(3-[1,2,3]triazol-2-yl-benzyl)-morpholine-4-carbonyl]-benzonitrile]: the IC50 is 33 nM on human orexin-1 receptor (setting [1]), 360 nM on human orexin-2 receptor (setting [2]) and over 50000 nM on CYP3A4.

Turning to `COc1ccc(C[C@@H]2COCCN2C(=O)c2ccccc2-n2nccn2)cc1-c1cccnc1` [Example 4, [(R)-3-(4-Methoxy-3-pyridin-3-yl-benzyl)-morpholin-4-yl]-(2-[1,2,3]triazol-2-yl-phenyl)-methanone], the IC50 on human orexin-1 receptor (setting [1]) amounted to 6 nM; on human orexin-2 receptor (setting [2]), 1880 nM; on CYP3A4, 1200 nM.

Consider `O=C(c1ccccc1-n1nccn1)N1CCOC[C@H]1Cc1cc(-n2nccn2)ccc1Cl` [Example 126, [(R)-3-(2-Chloro-5-[1,2,3]triazol-2-yl-benzyl)-morpholin-4-yl]-(2-[1,2,3]triazol-2-yl-phenyl)-methanone], for which the IC50 on human orexin-1 receptor (setting [1]) was 40 nM; on human orexin-2 receptor (setting [2]), 1480 nM; at CYP3A4 it was 17000 nM.

As to `O=C(c1cc(Cl)ccc1-n1nccn1)N1CCOC[C@H]1Cc1cc(-c2ncon2)ccc1F` [Example 176, (5-Chloro-2-[1,2,3]triazol-2-yl-phenyl)-[(R)-3-(2-fluoro-5-[1,2,4]oxadiazol-3-yl-benzyl)-morpholin-4-yl]-methanone], the IC50 is 11 nM at human orexin-1 receptor (setting [1]), 240 nM at human orexin-2 receptor (setting [2]) and 22000 nM on CYP3A4.

In the case of `O=C(c1cccc(Cl)c1-n1nccn1)N1CCOC[C@H]1Cc1cccc(-n2nccn2)c1` [Example 107, (3-Chloro-2-[1,2,3]triazol-2-yl-phenyl)-[(R)-3-(3-[1,2,3]triazol-2-yl-benzyl)-morpholin-4-yl]-methanone], the IC50 is 5 nM at human orexin-1 receptor (setting [1]), 435 nM on human orexin-2 receptor (setting [2]) and 22000 nM on CYP3A4.

In the case of `Cc1ccc(-n2nccn2)c(C(=O)N2CCOC[C@H]2Cc2cccc(-c3ccccn3)c2)c1` [Example 24, (5-Methyl-2-[1,2,3]triazol-2-yl-phenyl)-[(R)-3-(3-pyridin-2-yl-benzyl)-morpholin-4-yl]-methanone], the IC50 is 3 nM at human orexin-1 receptor (setting [1]), 1030 nM at human orexin-2 receptor (setting [2]) and over 50000 nM at CYP3A4.

Turning to `CC[C@@H]1CN(C(=O)c2ccccc2-n2nccn2)[C@H](Cc2cccc(-n3nccn3)c2)CO1` [Example 143, [(2R,5R)-2-Ethyl-5-(3-[1,2,3]triazol-2-yl-benzyl)-morpholin-4-yl]-(2-[1,2,3]triazol-2-yl-phenyl)-methanone], the IC50 at human orexin-1 receptor (setting [1]) came to 19 nM; at human orexin-2 receptor (setting [2]), 485 nM; at CYP3A4 it was 9100 nM.

Consider `Cc1ccc(C(=O)N2C[C@H](C)OC[C@H]2Cc2cccc(-n3nccn3)c2)c(-n2nccn2)c1` [Example 96, [(2S,5R)-2-Methyl-5-(3-[1,2,3]triazol-2-yl-benzyl)-morpholin-4-yl]-(4-methyl-2-[1,2,3]triazol-2-yl-phenyl)-methanone], for which the IC50 on human orexin-1 receptor turned out to be 10 nM; on human orexin-2 receptor it was 390 nM; on CYP3A4, 28000 nM.

On to `C[C@@H]1CN(C(=O)c2cc(Cl)ccc2-n2nccn2)[C@H](Cc2cc(-c3ncccn3)ccc2F)CO1` [Example 152, (5-Chloro-2-[1,2,3]triazol-2-yl-phenyl)-[(2R,5R)-5-(2-fluoro-5-pyrimidin-2-yl-benzyl)-2-methyl-morpholin-4-yl]-methanone], for which the IC50 was determined as 4 nM on human orexin-1 receptor (setting [1]), 129 nM at human orexin-2 receptor (setting [2]) and 15000 nM at CYP3A4.

For `Cc1ccc(-n2nccn2)c(C(=O)N2[C@H](Cc3cccc(-n4nccn4)c3)COC[C@@H]2C)c1` [Example 73, [(3S,5R)-3-Methyl-5-(3-[1,2,3]triazol-2-yl-benzyl)-morpholin-4-yl]-(5-methyl-2-[1,2,3]triazol-2-yl-phenyl)-methanone], the IC50 amounted to 10 nM on human orexin-1 receptor (setting [1]), 1850 nM on human orexin-2 receptor (setting [2]) and 6800 nM at CYP3A4.

For the molecule `Cc1ccc(-n2nccn2)c(C(=O)N2CCOC[C@H]2Cc2cccc(-c3ncccn3)c2)c1` [Example 17, (5-Methyl-2-[1,2,3]triazol-2-yl-phenyl)-[(R)-3-(3-pyrimidin-2-yl-benzyl)-morpholin-4-yl]-methanone], the IC50 on human orexin-1 receptor (setting [1]) turned out to be 2 nM; at human orexin-2 receptor (setting [2]), 396 nM; at CYP3A4, 33000 nM.

On to `O=C(c1ccc(C(F)(F)F)cc1-n1nccn1)N1CCOC[C@H]1Cc1cc(-n2nccn2)ccc1F` [Example 138, [(R)-3-(2-Fluoro-5-[1,2,3]triazol-2-yl-benzyl)-morpholin-4-yl]-(2-[1,2,3]triazol-2-yl-4-trifluoromethyl-phenyl)-methanone], for which the IC50 on human orexin-1 receptor (setting [1]) stood at 4 nM; at human orexin-2 receptor (setting [2]) it was 159 nM; at CYP3A4, 7400 nM.

On to `Cc1ccc(C(=O)N2CCOC[C@H]2Cc2cc(-n3cccn3)ccc2C)c(-n2nccn2)c1` [Example 189, [(R)-3-(2-Methyl-5-pyrazol-1-yl-benzyl)-morpholin-4-yl]-(4-methyl-2-[1,2,3]triazol-2-yl-phenyl)-methanone], for which the IC50 stood at 12 nM on human orexin-1 receptor (setting [1]), 1090 nM on human orexin-2 receptor (setting [2]) and 17000 nM at CYP3A4.

Consider `COc1cc(C(=O)N2CCOC[C@H]2Cc2cccc(-n3nccn3)c2)c(-n2nccn2)cc1OC` [Example 34, (4,5-Dimethoxy-2-[1,2,3]triazol-2-yl-phenyl)-[(R)-3-(3-[1,2,3]triazol-2-yl-benzyl)-morpholin-4-yl]-methanone], for which the results for the IC50 on human orexin-1 receptor (setting [1]), at human orexin-2 receptor (setting [2]) and at CYP3A4 were 5 nM, 1230 nM and over 50000 nM, respectively.

Regarding `Cc1ccc(C[C@@H]2COCCN2C(=O)c2ccccc2-n2nccn2)cc1-c1nccs1` [Example 193, [(R)-3-(4-Methyl-3-thiazol-2-yl-benzyl)-morpholin-4-yl]-(2-[1,2,3]triazol-2-yl-phenyl)-methanone], the IC50 at human orexin-1 receptor (setting [1]) came to 1 nM; on human orexin-2 receptor (setting [2]), 238 nM; at CYP3A4 it was 600 nM.
